Experiments:
Format in all cases: in vivo
canola (Brassica rapa) = test: Test C pre-/postemergence plant response; details: scale 0 to 100, 0 no effect, 100 complete control
Outline: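 Both preemergence (to planted seed) and postemergence (to plants 2–18 cm high, 1- to 4-leaf) applications used test chemicals in a non-phytotoxic solvent mixture containing surfactant. Evaluation: visual comparison with controls after 15 to 25 days; 0 means no effect, 100 complete control.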

[1] = system: Russian thistle (Salsola kali); test: Test E pre-/postemergence plant response; details: Preemergence, scale 0 to 100
Outline: (§1)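 Steps: sow seeds; apply compound preemergence in a non-phytotoxic solvent/surfactant formulation; in parallel, spray the same formulation postemergence on 1- to 4-leaf plants (2–18 cm); hold 14–21 days in a greenhouse; rate visually vs controls, 0 = no effect, 100 = complete control.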

[2] = system: Virginia (V.) dayflower (Commelina virginica); test: Test E pre-/postemergence plant response; details: scale 0 to 100
Outline: as §1

[3] = system: bermudagrass (Cynodon dactylon); test: Test E pre-/postemergence plant response; details: scale 0 to 100
Outline: as §1

[4] = system: common chickweed (Stellaria media); test: Test E pre-/postemergence plant response; details: 62 g ai/ha, Preemergence, scale 0 to 100
Outline: as §1

[5] = system: common sowthistle (Sonchus oleraceous); test: Test E pre-/postemergence plant response; details: scale 0 to 100
Outline: as §1

[6] = system: goosegrass (Eleusine indica); test: Test E pre-/postemergence plant response; details: scale 0 to 100
Outline: as §1

[7] = system: guineagrass (Panicum maximum); test: Test E pre-/postemergence plant response; details: scale 0 to 100
Outline: as §1

[8] = system: quackgrass (Elytrigia repens); test: Test E pre-/postemergence plant response; details: scale 0 to 100
Outline: as §1

[9] = system: southern (S.) sandbur (Cenchrus echinatus); test: Test E pre-/postemergence plant response; details: scale 0 to 100
Outline: as §1

CCOC(=O)Oc1cnn(C)c(=O)c1-n1nc(-c2ccc(Cl)cc2)cc1C [Compound 53]
90: Plant response rating, Guineagrass ([7]; Postemergence, 8 g ai/ha)
0: Plant response rating, Canola (canola (Brassica rapa); Postemergence, 8 g ai/ha) | Plant response rating, Canola (canola (Brassica rapa); Postemergence, 16 g ai/ha) | Plant response rating, Canola (canola (Brassica rapa); Postemergence, 31 g ai/ha) | Plant response rating, Canola (canola (Brassica rapa); Postemergence, 62 g ai/ha) | Plant response rating, Canola (canola (Brassica rapa); Preemergence, 62 g ai/ha) | Plant response rating, Thistle, Russian ([1]; 16 g ai/ha) | Plant response rating, Thistle, Russian ([1]; 31 g ai/ha) | Plant response rating, Thistle, Russian ([1]; 62 g ai/ha) | Plant response rating, Dayflower, V. ([2]; 16 g ai/ha, Preemergence) | Plant response rating, Dayflower, V. ([2]; 31 g ai/ha, Preemergence) | Plant response rating, Dayflower, V. ([2]; 62 g ai/ha, Preemergence) | Plant response rating, Dayflower, V. ([2]; Postemergence, 8 g ai/ha) | Plant response rating, Dayflower, V. ([2]; Postemergence, 16 g ai/ha) | Plant response rating, Dayflower, V. ([2]; Postemergence, 31 g ai/ha) | Plant response rating, Dayflower, V. ([2]; Postemergence, 62 g ai/ha) | Plant response rating, Chickweed [4] | Plant response rating, Sowthistle ([5]; 16 g ai/ha, Preemergence) | Plant response rating, Sowthistle ([5]; 31 g ai/ha, Preemergence) | Plant response rating, Sowthistle ([5]; 62 g ai/ha, Preemergence) | Plant response rating, Sowthistle ([5]; Postemergence, 8 g ai/ha) | Plant response rating, Sowthistle ([5]; Postemergence, 16 g ai/ha) | Plant response rating, Sowthistle ([5]; Postemergence, 31 g ai/ha) | Plant response rating, Sowthistle ([5]; Postemergence, 62 g ai/ha) | Plant response rating, Quackgrass ([8]; Postemergence, 8 g ai/ha) | Plant response rating, Quackgrass ([8]; Postemergence, 16 g ai/ha) | Plant response rating, Quackgrass ([8]; Postemergence, 31 g ai/ha)
70: Plant response rating, Bermudagrass ([3]; Postemergence, 16 g ai/ha) | Plant response rating, Quackgrass ([8]; 62 g ai/ha, Preemergence)
35: Plant response rating, Quackgrass ([8]; 16 g ai/ha, Preemergence)
100: Plant response rating, Goosegrass ([6]; 31 g ai/ha, Preemergence) | Plant response rating, Goosegrass ([6]; 62 g ai/ha, Preemergence) | Plant response rating, Guineagrass ([7]; 31 g ai/ha, Preemergence) | Plant response rating, Guineagrass ([7]; 62 g ai/ha, Preemergence) | Plant response rating, Guineagrass ([7]; Postemergence, 31 g ai/ha) | Plant response rating, Guineagrass ([7]; Postemergence, 62 g ai/ha) | Plant response rating, Sandbur, S. ([9]; 31 g ai/ha, Preemergence) | Plant response rating, Sandbur, S. ([9]; 62 g ai/ha, Preemergence) | Plant response rating, Sandbur, S. ([9]; Postemergence, 62 g ai/ha)
95: Plant response rating, Goosegrass ([6]; Postemergence, 62 g ai/ha) | Plant response rating, Sandbur, S. ([9]; Postemergence, 31 g ai/ha)
80: Plant response rating, Bermudagrass ([3]; 16 g ai/ha, Preemergence) | Plant response rating, Bermudagrass ([3]; Postemergence, 31 g ai/ha) | Plant response rating, Goosegrass ([6]; 16 g ai/ha, Preemergence) | Plant response rating, Goosegrass ([6]; Postemergence, 31 g ai/ha) | Plant response rating, Sandbur, S. ([9]; Postemergence, 16 g ai/ha)
65: Plant response rating, Goosegrass ([6]; Postemergence, 16 g ai/ha) | Plant response rating, Quackgrass ([8]; 31 g ai/ha, Preemergence) | Plant response rating, Sandbur, S. ([9]; Postemergence, 8 g ai/ha)
30: Plant response rating, Quackgrass ([8]; Postemergence, 62 g ai/ha) | Plant response rating, Sandbur, S. ([9]; 16 g ai/ha, Preemergence)
50: Plant response rating, Bermudagrass ([3]; Postemergence, 8 g ai/ha)
98: Plant response rating, Bermudagrass ([3]; 31 g ai/ha, Preemergence) | Plant response rating, Bermudagrass ([3]; 62 g ai/ha, Preemergence) | Plant response rating, Bermudagrass ([3]; Postemergence, 62 g ai/ha) | Plant response rating, Guineagrass ([7]; 16 g ai/ha, Preemergence) | Plant response rating, Guineagrass ([7]; Postemergence, 16 g ai/ha)
20: Plant response rating, Goosegrass ([6]; Postemergence, 8 g ai/ha)
